Source: publication PMC9332833 (Cancers, 2022)
Like-named read-outs stand apart in the source and are kept apart here.

Columns and labels:
K562-MDR1 cells [1] = experiment: MTT viability test, K562-MDR1; format: cell-based, human; conditions: for viability at 0.005 µM: 48 h, 0,005 µM; for IC50: MTT; for Cross-resistance of K562-MDR1 cells: MTT assay
From the text: The K562-MDR1 cell line was developed using increasing concentrations of the commonly used antimitotic drug vincristine on a polyclonal K562 population, as described earlier. […] The DMSO concentration in the culture was 0.1%. The vincristine dose was doubled every 2–3 weeks (at least twice for each experiment) after the cells reached confluence. Cell’s viability was above 90%, as confirmed by Muse Cell Analyzer (Merck Millipore, Burlington, MA, USA). The final concentration of vincristine reached was 0.1 μM. The increase in the K562-MDR1 population was confirmed by flow cytometry and PCR.
(§1) Cells were seeded in 96-well plates; after 24 h, medium with the appropriate drug concentration was added to each well. After 48 h, Tetrazolium Bromide (Sigma-Aldrich, St. Louis, MO, USA) was added to each well for 2–3 h. After that, cells were lysed and formazan crystals were dissolved. Absorbance was read using an iMark Microplate absorbance reader (Bio-Rad, Hercules, CA, USA). Results were calculated relative to cells treated with DMSO only. […]
(§2) Cells were seeded in 96-well plates at 7 × 10^3 cells/well in 50 µL of complete medium (for K562 or K562-MDR1) or at 50 × 10^3 cells/well in 50 µL of complete medium (CD34+ cells). After 24 hours, 50 µL of medium with the appropriate drug concentration was added to each well. The final DMSO concentration per well was 1% for K562 and K562-MDR1 and 0.1% for CD34+ cells. After 48 hours, 20 µL of Tetrazolium Bromide (Sigma-Aldrich, St. Louis, MO, USA) at a concentration of 5 mg/mL was added to each well. Cells were incubated for 2-3 hours in a cell culture incubator, and then 10% SDS with 1% HCl was added to each well to lyse the cells and dissolve the formazan crystals. Plates were […]

K562 cells [2] = experiment: MTT viability test, K562; format: cell-based; conditions: Homo sapiens; for viability at 0.005 µM: K562, 48 h, 0,005 µM; for IC50: K562
Description: CML cell line K562 CCL-243™ (BCR-ABL^+) was purchased from the ATCC® (Manassas, VA, USA). Cells were grown in RPMI 1640 medium containing HEPES (Biowest, Nuaillé, France) with 2 mM GlutaMAX (Gibco, Grand Island, NY, USA), supplemented with 10% fetal bovine serum (Sigma-Aldrich, St. Louis, MO, USA) and […] (Gibco, Grand Island, NY, USA) and 0.1 µM Vincristine (for K562-MDR1).
as §1, §2

K562-MDR1 cells [3] = experiment: P-glycoprotein (CD243)/propidium iodide flow cytometry; format: cell-based, human; conditions: 1 µM, 24 h; for Proportion of K562-MDR1 cells, mean value: DMSO control 33.6%; for viability at 1 µM: Homo sapiens, DMSO control 89.2%, read-out: Living cells (viability), mean value
Description: BK124.1 or DMSO were added to cells and after 24 h incubation cells were harvested and stained with FITC Mouse Anti-Human P-glycoprotein (CD243) clone 17F9 (BD, Franklin Lakes, NJ, USA) or an appropriate isotype control. Propidium iodide was added to […]. Cells were analyzed on a BD FACSCalibur flow cytometer using CellQuest software (BD, Franklin Lakes, NJ, USA). […]
Flow cytometry analysis of CD243 (P-glycoprotein)
Cells were seeded at a concentration of 1-2 × 10^5 cells/mL in a 6- or 24-well plate. After 24 hours of pre-incubation, DMSO or test compounds in DMSO were added. The cells were then incubated for 24 hours. After this time, cells were harvested, washed with 0.5% BSA in PBS (Mg2+ and Ca2+ free), and labeled for 30 minutes on ice with FITC Mouse Anti-Human P-glycoprotein (CD243) clone 17F9 (BD, Franklin Lakes, NJ, USA) or an appropriate isotype control. Following incubation with the antibody, cells were stained with propidium iodide, washed with PBS and a nalyzed on a BD FACSCalibur flow cytometer using CellQuest software (BD, Franklin Lakes, NJ, USA). […]

K562 cells [4] = experiment: K562 xenogeneic mouse model, tumor growth; format: in vivo, NSG mice
Description: Statistical analysis was performed using GraphPad Prism version 9.1.0. All in vitro experiments were performed in at least triplicate biological replicates and statistical results are expressed as mean ± standard deviation (SD). Statistical data of animal experiments are expressed as mean ± standard error of the mean (SEM). For experiments involving patients, the normality of the distribution was checked using the Shapiro–Wilk test and the statistical analysis was performed using one-way ANOVA with Dunnett’s post-test * p < 0.05, ** […], *** 0.001 > p > 0.0001, **** p < 0.0001.
Table S3. […] Control and
IP, intraperitoneal administration; O, orally

[5] = Blood morphology in K562 xenograft mice; conditions: 500 mg/kg IP daily 14 days, N=4
Description: (§3) Eight-week-old female NOD.Cg-Prkdcscid Il2rgtm1Wjl/SzJ NSG mice (Jackson Laboratory, Bar Harbor, ME, USA) were injected subcutaneously into the dorsal fold with 1 × 10^6 K562 cells of the human chronic myeloid leukemia (CML) line in a final volume of 100 µL (0.5% of the mouse weight). On day 3 after cell administration, mice were randomly assigned to each group, and on days 4–17 of the experiment, the selected tested compounds and control solutions were administered intraperitoneally or orally. During the experiment, subcutaneous tumors and body weight were measured daily. Tumor growth during the experiment was measured with an electronic display caliper. The theoretical tumor volume [mm], was calculated according to the formula (a^2 × b) * 0.5, where a is the shorter tumor axis [mm] and b is the longer tumor axis [mm]. On day 26, the experiment was terminated: blood was collected and analyzed for cellular morphology and standard biochemistry metabolites. Tumors were weighed.
(§4) Control and treated mice were grouped according to the tested compounds and the scheme of their administrations (doses, administration frequencies, routes of administration) in the CML xenogeneic model obtained by subcutaneous transplantation of 1 × 10^6 cells of the human CML blast line K562 into mice NOD.Cg-Prkdcscid Il2rgtm1Wjl/SzJ (NSG).
(§5) Hydroxyurea K562 500 mg/kg, IP Aqua pro 1 x daily 8

[6] = Body and organ weights in K562 xenograft mice
Description: as §3, §4, §5

[7] = Homo sapiens, 48 h, 0,05 µM, 48 h, mean ± SD, read-out: Viability in relation to control
[8] = Homo sapiens, 48 h, mean ± SD, read-out: Viability in relation to control
[9] = Homo sapiens, 48 h, 5 µM, 48 h, mean ± SD, read-out: Viability in relation to control
[10] = 48 h, mean ± SD, read-out: Viability in relation to control
[11] = mean ± SD, standard range 0.0-99.0
[12] = 500 mg/kg IP daily 14 days, mean ± SD, N=4

CC(=O)O[C@H]1C(=O)[C@@]2(C)[C@H]([C@H](OC(=O)c3ccccc3)[C@]3(O)C[C@H](OC(=O)[C@H](O)[C@@H](NC(=O)c4ccccc4)c4ccccc4)C(C)=C1C3(C)C)[C@]1(OC(C)=O)CO[C@@H]1C[C@@H]2O [paclitaxel]
viability at 5 µM (K562-MDR1 cells [1]; [7]): 89.9%
viability at 5 µM (K562-MDR1 cells [1]; Homo sapiens, 48 h, 0,5 µM, 48 h, mean ± SD, read-out: Viability in relation to control): 48.4%
viability at 0.005 µM (K562-MDR1 cells [1]; [8]): 100%
viability at 5 µM (K562-MDR1 cells [1]; [9]): 44.3%
IC50 (K562-MDR1 cells [1]; Homo sapiens, 48 h): 7 µM
Cross-resistance of K562-MDR1 cells (K562-MDR1 cells [1]): confirmed
viability at 0.005 µM (K562 cells [2]; [10]): 32.6%
Proportion of K562-MDR1 cells, mean value (K562-MDR1 cells [3]): 33.7%
viability at 1 µM (K562-MDR1 cells [3]): 77.2%

CC[C@]1(O)C[C@H]2CN(CCc3c([nH]c4ccccc34)[C@@](C(=O)OC)(c3cc4c(cc3OC)N(C=O)[C@H]3[C@@](O)(C(=O)OC)[C@H](OC(C)=O)[C@]5(CC)C=CCN6CC[C@]43[C@@H]65)C2)C1 [vincristine]
viability at 1 µM (K562-MDR1 cells [1]; Homo sapiens, 48 h, 0,1 µM, 48 h, mean ± SD, read-out: Viability in relation to control): 94.3%
viability at 0.001 µM (K562-MDR1 cells [1]; Homo sapiens, 48 h, 0,001 µM, 48 h, mean ± SD, read-out: Viability in relation to control): 106%
viability at 1 µM (K562-MDR1 cells [1]; Homo sapiens, 48 h, 1 µM, 48 h, mean ± SD, read-out: Viability in relation to control): 32.4%
viability at 0.005 µM (K562-MDR1 cells [1]; [8]): 111%
IC50 (K562-MDR1 cells [1]; Homo sapiens, 48 h): 0.512 µM
viability at 0.001 µM (K562 cells [2]; K562, 48 h, 0,001 µM, 48 h, mean ± SD, read-out: Viability in relation to control): 76.6%
viability at 0.005 µM (K562 cells [2]; [10]): 32.6%
IC50 (K562 cells [2]; MTT assay): 0.003 µM
Proportion of K562-MDR1 cells, mean value (K562-MDR1 cells [3]): 37.0%
viability at 1 µM (K562-MDR1 cells [3]): 79.7%

NC(=O)NO [hydroxyurea, reference compound]
Tumor weights (K562 cells [4]; 500 mg/kg IP daily 14 days, mean ± SD, N=4, tumor growth control 9.2±2.1): 1.8 ± 0.9 g
Tumor growth versus control groups (K562 cells [4]; BK124.1 20 or 30 mg/kg IP, imatinib 100 mg/kg orally, hydroxyurea 500 mg/kg IP, 1 x daily): effectively inhibited
GRA [5, 11]: 26.0±7.6%
LYMP [5, 11]: 58.0±9.9%
MON [5, 11]: 16.0±3.8%
HGB ([5]; mean ± SD, standard range 1.1-18): 13.1 ± 0.8 g/dL
WBC ([5]; mean ± SD, standard range 3.0-15): 8.1±4.3 103/μL
MPV ([5]; mean ± SD, standard range 4.6-7.3): 3.6±4.3 μm3
RBC ([5]; mean ± SD, standard range 5.0-12): 6.9±0.4 106/μL
RDW ([5]; mean ± SD, standard range 11.5-14.5): 17.3±0.6%
MCH ([5]; mean ± SD, standard range 12-24.5): 18.9 ± 0.5 pg
MCHC ([5]; mean ± SD, standard range 21.6-42): 31.5 ± 0.3 g/dL
HCT ([5]; mean ± SD, standard range 36-52): 41.5±2.4%
PLT ([5]; mean, standard range 140-600): 1575.5 103/μL
Brain weight [6, 12]: 0.46 ± 0.02 g
Heart weight [6, 12]: 0.11 ± 0.03 g
Kidneys weight [6, 12]: 0.27 ± 0.04 g
Liver weight [6, 12]: 1.16 ± 0.13 g
Lung weight [6, 12]: 0.25 ± 0.08 g
Splean weight [6, 12]: 0.05 ± 0.01 g
Total body weight course ([6]; doses as in Table S3, control mice gained mass in the last 5 days): began to lose large quantities of weight

COc1cccc2c1C(=O)c1c(O)c3c(c(O)c1C2=O)C[C@@](O)(C(=O)CO)C[C@@H]3O[C@H]1C[C@H](N)[C@H](O)[C@H](C)O1 [doxorubicin]
viability at 5 µM (K562-MDR1 cells [1]; [7]): 101%
viability at 0.005 µM (K562-MDR1 cells [1]; [8]): 99.4%
viability at 5 µM (K562-MDR1 cells [1]; [9]): 45.1%
IC50 (K562-MDR1 cells [1]; Homo sapiens, 48 h): 7 µM
Cross-resistance of K562-MDR1 cells (K562-MDR1 cells [1]): confirmed
viability at 0.005 µM (K562 cells [2]; [10]): 97.7%
IC50 (K562 cells [2]; MTT, 48 h): 3.7 µM
